According to patent publication US20030013140A1, “Method of detecting ligand or ligand-like low-molecular weight compound” (priority 2000, published 2003):

Legend:
Type in all cases: cell-based
[1] = biological target: T1, human G-CSF receptor (BAF/hGCSFR cell line) (Homo sapiens, UniProt Q99062); experiment: Cytoproliferative activity of the human G-CSF-dependent cell line BAF/hGCSFR (WST-1/1-methoxy PMS, 450 nm)
T1 construct: expressed in transfected cells; host or cells: BAF/B03 (mouse IL-3-dependent pro-B cell line), vector pIRESpuro
T1 sequence (Q99062 25-836): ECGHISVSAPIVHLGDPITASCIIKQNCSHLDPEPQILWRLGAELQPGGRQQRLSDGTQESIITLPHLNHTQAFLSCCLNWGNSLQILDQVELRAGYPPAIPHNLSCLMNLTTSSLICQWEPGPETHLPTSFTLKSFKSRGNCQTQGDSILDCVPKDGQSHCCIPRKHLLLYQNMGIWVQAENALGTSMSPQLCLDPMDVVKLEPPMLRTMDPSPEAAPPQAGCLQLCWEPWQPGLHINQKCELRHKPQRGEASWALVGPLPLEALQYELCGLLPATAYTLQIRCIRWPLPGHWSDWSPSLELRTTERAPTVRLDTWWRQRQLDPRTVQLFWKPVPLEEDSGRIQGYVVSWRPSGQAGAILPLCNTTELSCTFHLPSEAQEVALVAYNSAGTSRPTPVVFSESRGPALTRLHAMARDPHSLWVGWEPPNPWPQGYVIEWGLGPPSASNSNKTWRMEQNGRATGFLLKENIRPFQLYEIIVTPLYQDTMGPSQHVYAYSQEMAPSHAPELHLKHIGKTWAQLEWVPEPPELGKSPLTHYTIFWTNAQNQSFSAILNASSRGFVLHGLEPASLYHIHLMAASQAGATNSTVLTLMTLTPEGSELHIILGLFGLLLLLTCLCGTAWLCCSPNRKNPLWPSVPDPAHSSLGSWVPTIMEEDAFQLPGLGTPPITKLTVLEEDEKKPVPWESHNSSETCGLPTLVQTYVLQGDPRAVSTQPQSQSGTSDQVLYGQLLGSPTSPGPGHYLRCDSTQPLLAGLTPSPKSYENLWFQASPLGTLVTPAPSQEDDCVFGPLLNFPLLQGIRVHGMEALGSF
Protocol: Upon determining cytoproliferative activity, a cell line transfected with the human G-CSF receptor gene (BAF/hGCSFR) was recovered and, subsequent to its washing with PBS(−), was suspended in DMEM medium ((−)FCS). The cells were prepared at 5×10^4 cells/well on a 96-well plate. To the individual wells, rhG-CSF was added at 0, 0.025, 0.1, 0.4, 1.6 or 6.4 ng/mL, respectively, followed by incubation at 5% CO2 and 37° C. for 48 hours. Subsequent to the incubation, a WST-1/1-methoxy PMS solution (product of Dojindo Laboratories) was added to the individual wells (final concentration: 5 mM), and a staining reaction was then conducted in a CO2 incubator. After the reaction, measurement was conducted at a measurement wavelength of 450 nm.
(§1) With respect to the cell line (BAF/hGCSFR) obtained in Example 1 with the human G-CSF receptor gene introduced therein, effects which may be given to its screening by the existence of a reducing agent (2-mercaptoethanol) was investigated as will be described next. Firstly, two culture media were provided, one being a culture medium obtained by adding 2-mercaptoethanol at 5×10^−5 M to DMEM medium ((−)FCS) and the other consisting solely of DMEM medium ((−)FCS) without incorporation of the additives. […]

[2] = biological target: T2, human IL-10 receptor (BAF/hIL-10R cell line) (Homo sapiens, UniProt Q13651); experiment: Cytoproliferative activity of the human IL-10-dependent cell line BAF/hIL-10R (WST-1/1-methoxy PMS, 450 nm); settings: 2-mercaptoethanol 5×10^-5 M vs medium alone; marked differences at rhIL-10 10, 100 and 1,000 ng/mL; FIG. 6
T2 construct: expressed in transfected cells; host or cells: BAF/B03 (mouse IL-3-dependent pro-B cell line), vector pIRESpuro
T2 sequence (Q13651 22-578): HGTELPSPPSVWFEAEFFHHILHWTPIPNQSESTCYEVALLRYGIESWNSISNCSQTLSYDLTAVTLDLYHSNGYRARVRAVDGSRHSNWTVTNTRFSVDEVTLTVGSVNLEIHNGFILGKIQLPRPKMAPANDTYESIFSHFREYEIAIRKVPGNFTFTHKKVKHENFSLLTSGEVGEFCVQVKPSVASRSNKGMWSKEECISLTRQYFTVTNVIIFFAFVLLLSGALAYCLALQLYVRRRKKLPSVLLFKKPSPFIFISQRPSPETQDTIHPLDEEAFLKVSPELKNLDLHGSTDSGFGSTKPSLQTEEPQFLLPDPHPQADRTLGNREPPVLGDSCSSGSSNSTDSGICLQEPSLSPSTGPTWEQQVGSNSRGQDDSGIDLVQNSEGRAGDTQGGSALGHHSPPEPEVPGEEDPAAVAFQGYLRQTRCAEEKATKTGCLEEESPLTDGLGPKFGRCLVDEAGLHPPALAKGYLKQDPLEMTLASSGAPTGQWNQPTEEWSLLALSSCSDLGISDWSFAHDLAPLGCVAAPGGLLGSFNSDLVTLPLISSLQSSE
T2 sequence (Q61190 20-349 partner): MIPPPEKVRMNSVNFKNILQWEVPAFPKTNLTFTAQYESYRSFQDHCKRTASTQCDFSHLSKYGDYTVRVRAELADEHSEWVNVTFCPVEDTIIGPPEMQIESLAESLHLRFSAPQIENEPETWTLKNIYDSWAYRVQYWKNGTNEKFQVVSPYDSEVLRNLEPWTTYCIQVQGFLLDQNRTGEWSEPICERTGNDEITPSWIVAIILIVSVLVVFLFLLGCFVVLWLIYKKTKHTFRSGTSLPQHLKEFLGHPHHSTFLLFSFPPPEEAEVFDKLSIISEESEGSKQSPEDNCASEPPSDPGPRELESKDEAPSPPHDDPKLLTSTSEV
Protocol: Upon determining cytoproliferative activity, a cell line transfected with the human IL-10 receptor gene (BAF/hIL-10R) was recovered and, subsequent to its washing with PBS(−), was suspended in DMEM medium ((−)FCS). The cells were prepared at 5×10^4 cells/well on a 96-well plate. To the individual wells, rhIL-10 was added at 0, 0.0001, 0.001, 0.01, 0.1, 1, 10, 100 or 1,000 ng/mL, respectively, followed by incubation at 5% CO2 and 37° C. for 48 hours. Subsequent to the incubation, the WST-1/1-methoxy PMS solution (product of Dojindo Laboratories) was added (final concentration: 5 mM), and a staining reaction was then conducted in a CO2 incubator. After the reaction, measurement was conducted at a measurement wavelength of 450 nm.
as §1, with “line (BAF/hIL-10R)” for “line (BAF/hGCSFR)”, “Example 2” for “Example 1”, “human IL-10” for “human G-CSF”, “without addition” for “without incorporation”, “the reducing agent.” for “the additives.”

[3] = biological target: T3, human EPO receptor (BAF/hEPOR cell line) (Homo sapiens, UniProt P19235); experiment: Cytoproliferative activity of the human EPO-dependent cell line BAF/hEPOR (WST-1/1-methoxy PMS, 450 nm); settings: 2-mercaptoethanol 5×10^-5 M vs medium alone; FIG. 9
T3 construct: expressed in transfected cells; host or cells: BAF/B03 (mouse IL-3-dependent pro-B cell line), vector pIRESpuro; cDNA from a human erythroid leukemia cell line
T3 sequence (P19235 25-508): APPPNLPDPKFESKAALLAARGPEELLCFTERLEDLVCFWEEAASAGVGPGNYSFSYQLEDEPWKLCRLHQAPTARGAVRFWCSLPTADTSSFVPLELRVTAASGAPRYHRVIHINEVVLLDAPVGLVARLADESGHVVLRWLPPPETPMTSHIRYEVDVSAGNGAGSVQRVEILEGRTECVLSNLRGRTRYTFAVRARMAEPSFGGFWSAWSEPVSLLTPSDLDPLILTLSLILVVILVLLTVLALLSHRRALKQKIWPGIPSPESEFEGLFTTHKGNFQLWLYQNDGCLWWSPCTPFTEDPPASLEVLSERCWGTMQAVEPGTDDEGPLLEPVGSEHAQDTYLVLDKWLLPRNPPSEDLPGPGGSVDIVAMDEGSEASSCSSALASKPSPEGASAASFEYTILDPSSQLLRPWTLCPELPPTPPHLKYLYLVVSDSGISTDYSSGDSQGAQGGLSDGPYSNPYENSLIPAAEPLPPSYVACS
Protocol: Upon determining cytoproliferative activity, a cell line transfected with the human EPO receptor gene (BAF/hEPOR) was recovered and, subsequent to its washing with PBS(−), was suspended in DMEM medium ((−)FCS). The cells were prepared at 5×10^4 cells/well on a 96-well plate. […] Subsequent to the incubation, a WST-1/1-methoxy PMS solution (product of Dojindo Laboratories) was added to the individual wells (final concentration: 5 mM), and a staining reaction was then conducted in a CO2 incubator. After the reaction, measurement was conducted at a measurement wavelength of 450 nm.
With respect to the cell line (BAF/hEPOR) obtained in Example 8 with the human EPO receptor gene introduced therein, effects which may be given to its screening by the existence of a reducing agent (2-mercaptoethanol) was investigated as will be described next. Firstly, two culture media were provided, one being a culture medium obtained by adding 2-mercaptoethanol at 5×10^−5 M to DMEM medium ((−)FCS) and the other consisting solely of DMEM medium ((−)FCS) without addition of the reducing agent. Those culture media were poured into individual wells of 96-well plates, respectively, and BAF/hEPOR which had been washed with PBS(−) was suspended at 5×10^4 cells/well. […]

| effect of reducing agent on cytoproliferation of BAF/hG-CSFR in the presence of rhG-CSF ([1]; 2-mercaptoethanol 5×10^-5 M vs medium alone, marked differences at rhG-CSF 0.1, 0.4, 1.6 and 6.4 ng/mL, FIG. 3) | effect of reducing agent on cytoproliferation of BAF/hIL-10R in the presence of rhIL-10 [2] | effect of reducing agent on cytoproliferation of BAF/hEPOR in the presence of rhEPO [3] | cytoproliferation of BAF/hG-CSFR in the presence of SB247464 on addition of WEHI sup to the culture medium ([1]; WEHIsup 1.25% with 2-mercaptoethanol 5×10^-5 M vs medium alone, SB247464 0 to 10^-6 M, marked differences at 10^-8, 10^-9 and 10^-10, FIG. 5) | SMILES |
| --- | --- | --- | --- | --- |
| enhanced | enhanced | enhanced | – | OCCS [2-mepcaptoethanol, 2-mercaptoethanol] |
| – | – | – | enhanced | c1ccc(C23N=C(Nc4nc5ccccc5[nH]4)NC2(c2ccccn2)NC(Nc2nc4ccccc4[nH]2)=N3)nc1 (stereo not shown) [SB247464, reference compound] |
